SMILES strings stand for the structures. Some results are limits rather than exact numbers.

Common to all, as to format: functional, cell-based
For one assay, the system named is A549. Briefly: Cytotoxic activity against human A549 cells assessed as reduction in cell viability after 72 hrs by SRB assay. To be noted: A549, 72 h. (The SRB assay estimates cell density from bound dye.)
The subject of the next assay is SK-OV-3. Put plainly: Cytotoxic activity against human SKOV3 cells assessed as reduction in cell viability after 72 hrs by SRB assay. To be noted: SK-OV-3, 72 h.
Another assay concerns PC-3. Briefly: Cytotoxic activity against human PC3 cells assessed as reduction in cell viability after 72 hrs by SRB assay. To be noted: PC-3, 72 h.

By IC50 is commonly meant the concentration at which inhibition is half-maximal. `COC(=O)[C@]1(C)CCC[C@]2(C)c3cc([N+](=O)[O-])c(C(C)C)cc3CC[C@@H]12`: the concentration for half-maximal inhibition (IC50) was determined as 89.4 µM with A549, 47.8 µM in the assay with SK-OV-3 and 81.9 µM with PC-3.
The matching figures for `CC(C)(C)[Si](C)(C)O[C@@H]1CC[C@]2(C)c3ccccc3CC[C@H]2[C@H]1CO`: > 100 µM, > 100 µM and > 100 µM.
On to `CC(C)c1ccc2c(c1O)C(=O)C[C@H]1C3=C(CC[C@]21C)C(=O)OC3`, for which the IC50 with A549 came to 77.3 µM; in the assay on SK-OV-3, 42.5 µM; in the assay with PC-3, 58 µM.
The matching figures for `COC(=O)[C@]1(C)CCC[C@@]2(C)[C@H]1CC=C1[C@@H]2CC[C@](O)(C(C)C)[C@H]1O`: 92.4 µM, 92.9 µM and > 100 µM.
The matching figures for `CCOCC[C@]12CCC3=C(COC3=O)[C@@H]1CCc1c2ccc(C(C)C)c1OC`: > 100 µM, > 100 µM and > 100 µM.
The matching figures for `C=C1[C@H](O[Si](C)(C)C(C)(C)C)CC[C@]2(C)c3ccccc3CC[C@@H]12`: 97.9 µM, 91.8 µM and > 100 µM.
With `C=C1C(=O)CC[C@]2(C)c3cccc(OC)c3CC[C@@H]12`, the IC50 in the assay with A549 turned out to be 5.47 µM; in the assay with SK-OV-3, 3.31 µM; with PC-3, 5.01 µM.
The matching figures for `C=C1CCC[C@]2(C)c3ccc(C(C)C)c(OC)c3CC[C@@H]12`: 99.1 µM, > 100 µM and > 100 µM.
The matching figures for `COC(=O)[C@]1(C)CCC[C@]2(C)c3ccc(C(C)C)c(O)c3CC[C@@H]12`: 56 µM, 42.9 µM and 22.3 µM.
As for `COc1c(C(C)C)ccc2c1CC[C@H]1[C@@H](CO)[C@H](O)CC[C@]21C`, the IC50 with A549, in the assay on SK-OV-3 and in the assay with PC-3 was > 100 µM in each case.
Consider `CC(C)c1ccc2c(c1O)CC[C@H]1C3=C(CC[C@]21C)C(=O)OC3` [TRIPTOPHENOLIDE], for which the IC50 in the assay on A549, with SK-OV-3 and in the assay on PC-3 was > 100 µM each time.
On to `COc1c(C(C)C)ccc2c1CC[C@@]1(O)C3=C(C(=O)OC3)[C@@H](O)C[C@]21C`, for which the IC50 in the assay on A549 was > 100 µM; in the assay on SK-OV-3 it was 92.2 µM; in the assay on PC-3 it was > 100 µM.
With `C=C1C(=C(SC)SC)CC[C@]2(COCOCC)c3ccc(C(C)C)c(OC)c3CC[C@@H]12`, the half-inhibitory concentration (IC50) with A549 amounted to 99.8 µM; in the assay with SK-OV-3 it was 26 µM; in the assay on PC-3, 19.4 µM.
The matching figures for `C=C1C(=O)CC[C@]2(C)c3ccc(C(C)C)c(OC)c3CC[C@@H]12`: 9.31 µM, 7.49 µM and 7.28 µM.
For `CC(C)c1ccc2c(c1)CC[C@H]1[C@](C)(C(=O)O)CCC[C@]21C` [DEHYDROABIETIC ACID], the half-inhibitory concentration (IC50) in the assay on A549 stood at 74.3 µM; with SK-OV-3 it was 66 µM; in the assay with PC-3 it was 51.3 µM.
The matching figures for `COc1c(C(C)C)ccc2c1CC[C@H]1[C@@H](O)CCC[C@]21CO[N+](=O)[O-]`: > 100 µM, > 100 µM and > 100 µM.
The matching figures for `O=c1[nH]cc(F)c(=O)[nH]1` [FLUOROURACIL]: 32.1 µM, 23.1 µM and 15.3 µM.
The matching figures for `COC(=O)[C@]1(C)CCC[C@@]2(C)[C@H]1CC=C1C=C(C(C)C)CC[C@@H]12` [METHYL ABIETATE]: 63.1 µM, 81.3 µM and 79.3 µM.
On to `COc1c(C(C)C)ccc2c1CC[C@H]1c3cocc3CC[C@]21C`, for which the concentration for half-maximal inhibition (IC50) in the assay with A549 amounted to 27.4 µM; in the assay on SK-OV-3, 21.3 µM; in the assay with PC-3, 19.3 µM.
The matching figures for `COc1cccc2c1CC[C@H]1[C@@H](CO)[C@H](O[Si](C)(C)C(C)(C)C)CC[C@]21C`: > 100 µM, > 100 µM and > 100 µM.
The matching figures for `COc1c(C(C)C)ccc2c1CC[C@H]1C(=O)CCC[C@]21CO[N+](=O)[O-]`: > 100 µM, > 100 µM and > 100 µM.
The matching figures for `COc1c(C(C)C)ccc2c1CC[C@H]1C(=O)CCC[C@]21C`: > 100 µM, > 100 µM and > 100 µM.
Regarding `COC(=O)[C@]1(C)CCC[C@]2(C)c3ccc(C(C)C)c([N+](=O)[O-])c3CC[C@@H]12`, the IC50 in the assay on A549, with SK-OV-3 and in the assay with PC-3 was > 100 µM throughout.
Consider `C[C@]12CCC3=C(COC3=O)[C@@H]1CCc1ccccc12`, for which the IC50 in the assay with A549, in the assay with SK-OV-3 and in the assay on PC-3 was > 100 µM throughout.
Regarding `COC(=O)C1=C[C@@H]2CCc3c(ccc(C(C)C)c3OC)[C@@]2(C)CC1`, the IC50 with A549, in the assay with SK-OV-3 and in the assay on PC-3 was > 100 µM in each case.
Consider `C=C1C(CO)=CC[C@]2(C)c3ccc(C(C)C)c(OC)c3C(=O)C[C@@H]12`, for which the half-inhibitory concentration (IC50) in the assay on A549, with SK-OV-3 and with PC-3 was > 100 µM throughout.
Regarding `COc1c(C(C)C)ccc2c1C=C[C@H]1C3=C(CC[C@]21C)C(=O)OC3`, the IC50 with A549, in the assay on SK-OV-3 and with PC-3 was > 100 µM throughout.
Turning to `C=CCc1cc(C(C)C)c(O)c2c1[C@@]1(C)CCC3=C(COC3=O)[C@@H]1CC2=O`, the results for the half-maximal inhibitory concentration (IC50) with A549, with SK-OV-3 and in the assay with PC-3 were 97.5 µM, 87.1 µM and 95.1 µM, respectively.
The matching figures for `COC(=O)[C@]1(C)CCC[C@@]2(C)[C@H]1CC=C1C(=O)[C@@](O)(C(C)C)CC[C@@H]12`: 85.1 µM, 99.2 µM and > 100 µM.
The matching figures for `C=C1C(=C(SC)SC)CC[C@]2(CO)c3ccc(C(C)C)c(OC)c3CC[C@@H]12`: 53.8 µM, 32.9 µM and 50.1 µM.
Turning to `COC(=O)[C@]1(C)CCC[C@]2(C)c3ccc(C(C)C)c(OC)c3C(=O)C[C@@H]12`, the figures for the concentration for half-maximal inhibition (IC50) in the assay with A549, in the assay on SK-OV-3 and in the assay with PC-3 were > 100 µM, > 100 µM and 99.4 µM, respectively.
Regarding `COc1cccc2c1CC[C@H]1[C@H]3COC(=O)C3=CC[C@]21C`, the half-inhibitory concentration (IC50) in the assay with A549 was 88.9 µM; in the assay with SK-OV-3 it was > 100 µM; with PC-3, > 100 µM.
In the case of `COc1c(C(C)C)ccc2c1CC[C@H]1C3=C(CC[C@]21CO)C(=O)OC3`, the IC50 with A549, with SK-OV-3 and in the assay on PC-3 was > 100 µM in each case.
As to `CC(C)[C@]12O[C@H]1[C@@H]1O[C@]13[C@]1(O[C@H]1C[C@H]1C4=C(CC[C@@]13C)C(=O)OC4)[C@@H]2O` [TRIPTOLIDE], the IC50 stood at 0.0175 µM in the assay on A549, 0.0072 µM in the assay on SK-OV-3 and 0.0183 µM with PC-3.
As to `COC(=O)[C@]1(C)CCC[C@]2(C)c3ccc(C(C)C)c(OC)c3[C@@H](O)C[C@@H]12`, the IC50 in the assay on A549 stood at 85.7 µM; in the assay on SK-OV-3 it was 51.9 µM; in the assay on PC-3, 64.2 µM.
On to `COC(=O)[C@]1(C)CCC[C@]2(C)c3ccc(C(C)C)c(OC)c3CC[C@@H]12`, for which the IC50 in the assay with A549 was > 100 µM; with SK-OV-3 it was 65.2 µM; in the assay on PC-3, 59.9 µM.
The matching figures for `COc1c(C(C)C)ccc2c1CC[C@H]1[C@@H]3COC(=O)[C@@H]3CC[C@]21C`: > 100 µM, > 100 µM and > 100 µM.
As to `C=CCc1ccc2c(c1O)C(=O)C[C@H]1C3=C(CC[C@]21C)C(=O)OC3`, the IC50 in the assay on A549 was 95.8 µM; with SK-OV-3, 39.4 µM; in the assay on PC-3, 68 µM.
The matching figures for `COc1ccc(COC[C@H]2[C@H](O)CC[C@]3(C)c4cccc(OC)c4CC[C@@H]23)cc1`: 5.39 µM, 6.19 µM and 3.37 µM.
With `C=C1[C@H](O)CC[C@]2(C)c3ccc(C(C)C)c(OC)c3CC[C@@H]12`, the values for the 50% inhibitory concentration (IC50) in the assay on A549, with SK-OV-3 and with PC-3 were 99.6 µM, > 100 µM and > 100 µM, respectively.
For `COC(=O)[C@]1(C)CCC[C@]2(C)c3ccc(C(C)C)c(N)c3CC[C@@H]12`, the figures for the half-maximal inhibitory concentration (IC50) with A549, with SK-OV-3 and in the assay with PC-3 were 35.7 µM, 37.8 µM and 21.1 µM, respectively.
The matching figures for `CC(C)c1ccc2c(c1O)C(=O)C[C@H]1C3=C(CC[C@]21CO)C(=O)OC3`: > 100 µM, 95.4 µM and 92.2 µM.
`C=CCOc1cccc2c1C(=O)C[C@H]1C3=C(CC[C@]21C)C(=O)OC3`: the IC50 with A549 was 89.4 µM; in the assay with SK-OV-3, > 100 µM; with PC-3 it was > 100 µM.
As for `COc1c(C(C)C)ccc2c1CC=C1C3=C(CCC12C)C(=O)OC3` (single isomer, unassigned), the figures for the 50% inhibitory concentration (IC50) in the assay on A549, with SK-OV-3 and in the assay with PC-3 were 74.9 µM, 24 µM and 48 µM, respectively.
The matching figures for `COc1c(C(C)C)ccc2c1CC[C@H]1[C@@H](O)CCC[C@]21C`: > 100 µM, > 100 µM and 98.2 µM.
Regarding `COc1cccc2c1CC[C@H]1C3=C(CC[C@]21C)C(=O)OC3`, the half-inhibitory concentration (IC50) in the assay on A549, with SK-OV-3 and in the assay with PC-3 was > 100 µM throughout.
On to `C[C@]12CC=C3C(=O)OC[C@@H]3[C@@H]1CCc1ccccc12`, for which the IC50 in the assay on A549, in the assay on SK-OV-3 and in the assay on PC-3 was > 100 µM each time.
On to `C=CCOc1c(C(C)C)ccc2c1C(=O)C[C@H]1C3=C(CC[C@]21C)C(=O)OC3`, for which the values for the 50% inhibitory concentration (IC50) in the assay on A549, in the assay on SK-OV-3 and with PC-3 were > 100 µM, 82.4 µM and 98.3 µM, respectively.
Take `CC(C)C1=CC2=CC[C@@H]3[C@](C)(CCC[C@@]3(C)C(=O)O)[C@H]2CC1` [ABIETIC ACID]: the IC50 is > 100 µM with A549, 90.4 µM in the assay on SK-OV-3 and > 100 µM in the assay on PC-3.

These data come from ChEMBL document CHEMBL4000202, “Identification of a diverse synthetic abietane diterpenoid library for anticancer activity” (Bioorg Med Chem Lett, 2017).
